Series [1] can be described thus: solubility in aqueous solutions. The series is classed as physicochemical. An excerpt:
Despite the apparent efficacy of PX compounds in treating various disease conditions, their use is limited due to a problem of extremely low solubility. […] This very poor solubility generally leads to insufficient bioavailability alter administration, likely because the dissolution velocity is too slow.

Series [2] in a line: particle size after high pressure homogenization (photon correlation spectroscopy). It counts as physicochemical. As for the experimental part: PX-18 powder was dispersed in a 1% Tween 80 carrier. The composition of the formulation was 1% PX-18, 1% Tween 80 and 98% water. The obtained macrosuspension was passed through a micron LAB 40 homogenizer (APV Homogenizer Systems, Unna/Germany) at 1500 bar, applying one homogenization cycle. The particle size was determined by photon correlation spectroscopy (PCS, Malvern Zetasizer Nano ZS, Malvern Instruments, United Kingdom), The mean particle size (z-average) was 745 nm.
A second macrosuspension of PX-18 was prepared as described above, and subsequently homogenized. The homogenization parameters were 1500 bar and 20 homogenization cycles.
A suspension of 1% PX-13 was prepared in an aqueous preparation of 2% Planta Care 2000. After homogenization applying 20 cycles at 1500 bar, a PCS mean diameter of 33 nm was obtained.

The subject of series [3] is ischemia-induced impaired vasodilation. The series is described as follows: ischemia-induced impaired vasodilation. It counts as in vivo, newborn piglets. To be noted: for effect on impaired hypercapnic vasodilation after global ischemia: FIG. 11. As for the experimental part:
(§1) The ability of PX-18 nanoparticles to influence 1) basal and induced arterial dilation; and 2) ischemia-induced impaired vasodilation (due to bradykinin, N-methyl-D-aspartic acid (NMDA) and ischemia-reperfusion) was studied in newborn piglets (1-2-day old, n=44). The piglets were anesthetized, ventilated, and equipped with arterial and venous catheters and a closed cranial window. Xanoparticulate PX-18 was administered iv at a concentration of 6 mg/kg.
The protocol for testing the effect of ischemia-induced impaired vasodilation is preseted in FIG. 8. […] In addition, intravenous but not topical treatment with PX-18 restored impaired hypercapnic vasodilation after global ischemia (FIG. 11).

Series [4] deals with hippocampus neurons after ischemia. In words: common carotid artery occlusion, alive hippocampal neurons. It counts as in vivo, Gerbils. Conditions: 1% nanoparticle formulation, 40-50 nm, subcutaneously 5 min, 24 hr and 48 hr after ischemia, day 4. As for the experimental part: Common carotid arteries of Gerbils (6 gerbils per group) were occluded for 5 minutes to induce ischemia. Thereafter, a nanoparticle formulation of PX-18 (1% formulation, particles size of 40-50 nanometers) was administered subcutaneously 5 min, 24 hr and 48 hr after ischemia. After surgery, the gerbils were returned to their cages where, upon awakening, they were able to resume their normal locomotor functions. They were sacrificed on day 4. The hippocampus was sectioned and the number of alive neurons was assessed. In the ischemic animals, sPLA2 unregulated within 24 hr after ischemia and most neurons were dead by 4 days. PX-18 reduced neuronal damage in a dose dependent manner, providing approximately 30% protection at a dose of 30 mg/kg and 45% protection at a dose of 60 mg/kg, […]

Series [5] concerns Rabbits. Conditions: rabbit, in vivo, iv.
Series [6] has as its system pial arterioles. In words: basal and induced pial arteriolar dilation and hemodynamics. The series is classed as in vivo, newborn piglets. As for the experimental part: as §1
Series [7] is described as follows: dissolution velocity: amount suspended in water after 5 minutes (gravimetry). It counts as physicochemical. As for the experimental part: 1 ml of macrosuspension (PX powder, dispersed in water) and 1 ml of PX-18 nanosuspension (diameter 40 nm) was added to 9 ml of de-mineralised water and stirred with a magnetic stirrer for 5 minutes. Each 10 ml sample was then filtered to remove non-suspended PX-18, and the amount of suspended PX-18 was determined by gravimetry. While the concentration of PX-18 in both suspensions was 1% (w/w), about 91% of the nanoparticles had become suspended within 5 minutes compared to just 8.4% of the macrosuspension.
To farther assess the importance of nanoparticle size on the dissolution velocity of PX-18, the dissolution velocity of PX-18 nanoparticles with a size of 40 nm was compared to that of PX-18 nanoparticles with a size of 200 nm. The analysis was performed as described above. After 5 minutes, about 91% of the 40 nm particles were suspended, whereas die larger 200 nm nanoparticles were suspended to about 41%.

Series [8] can be described thus: solubility in solvents. It counts as physicochemical. The source says: PX-18, a specific inhibitor of sPLA2, is a fatty moiety feat is soluble in methylene chloride, chloroform and ethyl acetate. […] Its solubility in water is typically very low.
For series [9], the system named is ischemia-reperfusion in the heart. In words: infarct size after regional ischemia/reperfusion in the heart. Conditions: PX-18 60 mg/kg ip; P<0.05. It counts as in vivo, Rabbits. As for the experimental part: The protective effect of PX-18 during ischemia-reperfusion in the heart was assessed. Since opening of mitochondrial KATP channels are essential components of ischemic tolerance induced by preconditioning in heart, the role of these channels in PX-18-induced cardioprotection was also examined. Briefly, 180 mg of PX-18 was put into a small homogenizing tube containing 3 ml of ethylene glycol in a homogenizing tube and warming it to about 50° C. Several bursts of sonication (about 10 seconds) were applied in a nitrogen gas bath to minimize oxidation, followed by homogenization. This procedure was repeated 4-5 times until a uniform cloudy proportion that was easily injected through a needle was obtained. Procedures of this type generate PX-18 particles of a size in the micrometer range. Rabbits were treated with the sonicated preparation, of PX-18 (60 mg/kg ip). 30 minutes later the hearts were subjected to 30 minutes of regional ischemia followed by 3 hours of reperfusion. Mitochondrial KATP channel blocker 5-hydroxydecanoate (5-HD, 5 mg/kg iv) was given 10 min before ischemia/reperfusion. Infarct size was measured by computer morphometry of tetrazolium stained sections.

Molecules are shown by their SMILES.

For `CCCCCCCC/C=C\CCCCCCCC(=O)OCC(COC(=O)CCCCCCC/C=C\CCCCCCCC)(COC(=O)CCCCCCC/C=C\CCCCCCCC)NCCS(=O)(=O)O` [PX-13], in [1], the “solubility in aqueous solutions” value is on record as “about 5 μg/ml”. The compound also came in with a PCS mean diameter in series [2] (1% PX-13 in aqueous 2% Planta Care 2000, 20 cycles at 1500 bar) of 33 nm. For the same compound, the “particle size (PCS, z-average)” value in [2] (one homogenization cycle at 1500 bar) is 400-900 nm.

Take `CCCCCCCC/C=C\CCCCCCCC(=O)OCCN(CCOC(=O)CCCCCCC/C=C\CCCCCCCC)CCS(=O)(=O)O` [PX-18]: the “effect on impaired hypercapnic vasodilation after global ischemia” value is “restored” in [3] (intravenous treatment) and “not topical” in [3] (topical treatment). In addition, the “effect on ischemia-induced impaired vasodilation caused by N-methyl-D-aspartic acid” value in series [3] (iv administered, NMDA 10^−4M, FIG. 10) is on record as “counteracts”. The “effect on ischemia-induced impaired vasodilation caused by bradykinin” value in series [3] (iv administered, bradykinin 10^−8M, FIG. 9) was “counteracts”. Also, the “protection against neuronal damage” value in series [4] (30 mg/kg) is on record as “approximately 30%”; in series [4] (60 mg/kg) it was approximately 45%. Moreover, the survival result in [5] is listed as “did not survive”. Besides, in series [6] (after iv bolus, 6 mg/kg), the “time to normalization of MABP and pial arteriole diameter” value was in the range of 4 to 6 min. In addition, in series [6] (intravenous, FIG. 6), the “effect on basal and hypercapnia-induced (endothelium and COX dependent) pial arterial dilation” value is listed as “did not influence”. In [6] (iv bolus of nanoparticle formulation, 6 mg/kg, transient), this compound had a pial arteriole dilation of 32±1%. Further, the “mean arterial blood pressure (MABP) after bolus” value in series [6] (iv bolus of nanoparticle formulation, 6 mg/kg, transient decrease from 62±7 mmHg) was 40±5 mmHg. Moreover, the “pial arteriole dilation (Mean±SEM)” value in series [6] (nanoparticle formulation, 10^−4M, topically onto the brain surface) turned out to be 16±5%. In addition, the “effect on PACAP induced (non-endothelium but COX-dependent) pial arteriolar dilation” value in [6] (topical, FIG. 7) was “impaired”. The amount suspended in series [7] (macrosuspension (powder, μm-sized particles), 1% (w/w), 1 ml in 9 ml de-mineralised water, stirred 5 minutes) is on record as 8.4%; in series [7] (nanoparticles with a size of 200 nm, after 5 minutes) it was “about 41%”. Moreover, the “solubility in aqueous solutions” value in series [1] was “approximately 24 μg/ml”. The solubility result in series [8] (in acetone and methanol) is recorded as “insoluble”; in series [8] (in dimethylsulfoxide (DMSO)) it was “limited solubility”; in [8] (in methylene chloride, chloroform and ethyl acetate), “soluble”; in series [8] (in water), “very low”. Further, the “reduction of infarct size versus vehicle” value in [9] turned out to be 43%.

The values are drawn from patent US20110097410A1, “FORMULATIONS OF PX COMPOUNDS” (priority 2007, published 2011).
